≈ marks a conversion by molar mass, not a printed value. Where “and” joins values, the source holds several entries; their conditions need not be identical. Identical values can stand only once. Like-named read-outs stand apart in the source and are kept apart here.
How the values were obtained:
[1] = test system: Vancomycin-intermediate S. aureus NRS1; assay: microbe, parasite or virus in culture; conditions: for MIC VISA: Vancomycin-intermediate NRS1
Outline: (§1)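 Broth microdilution in Mueller Hinton broth with twofold serial dilutions of compound from 8 to 0.003 µg mL^−1.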

[2] = test system: Multi-drug-resistant S. pneumoniae ATCC 700677; assay: microbe, parasite or virus in culture; conditions: for MIC MDR S.P.: ATCC 700677
Outline: as §1

[3] = test system: Vancomycin-resistant (VanA) Enterococcus faecium ATCC 51559; assay: microbe, parasite or virus in culture; conditions: for MIC VRE: ATCC 51559
Outline: as §1

[4] = test system: S. aureus ATCC 43300; assay: Membrane permeability assay (propidium iodide); assay type: cell-based, Staphylococcus aureus
Procedure: To evaluate the ability of the compounds to disrupt the cytoplasmic membrane integrity, the membrane impermeable fluorescent DNA intercalating dye propidium iodide (PI) was used. Early exponential phase cells were pelleted and washed twice in 10 mM HEPES buffer (pH 7.4) containing 50 µg mL^−1 of CaCl2 and 5 mM glucose, and then re-suspended in the same buffer (4 × 10^8 CFU mL^−1). Cell suspension was added to a 384-well black walled polystyrene plate (Corning, CLS3573) containing compounds, giving a final concentration of 16 µg mL^−1. After 1 h incubation at 37 °C, 5 µg mL^−1 of PI was added and fluorescence was monitored for 90 min using a Tecan Infinite® m1000 Pro Multi-mode reader (excitation/emission 535/620 nm). Data were corrected by subtraction of fluorescence signal arising from untreated cells in the presence of PI. […] Each sample was tested in quadruplicate and independent assays were performed twice showing similar results. Data was analysed and presented using Prism software.

[5] = test system: Methicillin-resistant S. aureus ATCC 43300; assay: microbe, parasite or virus in culture; conditions: for MIC: Staphylococcus aureus, ATCC43300|MRSA
Outline: as §1

[6] = Cytotoxicity MTT assay; assay type: cell-based, human; conditions: human
[7] = test system: Methicillin-sensitive S. aureus ATCC 29213; assay: microbe, parasite or virus in culture; assay type: cell-based, Staphylococcus aureus; conditions: for MIC: Staphylococcus aureus, ATCC 29213 / MSSA
Procedure: Antimicrobial activity of compounds was tested against a number of bacterial strains by broth microdilution (BMD) assay with MIC determination, including S. aureus (MSSA ATCC® 29213™, MRSA ATCC® 43300™, VISA NARSA NRS1, VISA NARSA NRS4), Streptococcus pneumoniae (MDR ATCC® 700677™) and Enterococcus faecium (MDR VanA ATCC® 51559™). ATCC strains were sourced from the American Type Culture Collection and NRS strains from NARSA (Network on Antimicrobial Resistance in S. aureus) via BEI Resources (www.beiresources.org). All compounds were prepared to 160 µg mL^−1 solution in water from a stock solution of 1 mM concentration.
[…] […] Standards ranged from 64 to 0.03 µg mL^−1 and compounds from 8 to 0.003 µg mL^−1 with final assay volumes of 100 µL per well. Gram-positive bacteria were cultured in Mueller Hinton broth (MHB) (Bactolaboratories, Cat. no. 211443) at 37 °C overnight. A sample of each culture was then diluted 40-fold in fresh MHB and incubated at 37 °C for 2–3 h. The resultant mid-log phase cultures were added to the compound-containing 96-well plates to give a final cell density of 5 × 10^5 colony forming unit (CFU) mL^−1. All the plates were covered and incubated at 37 °C for 24 h. MICs were the lowest concentration showing no visible growth.

[8] = test system: Vancomycin-resistant S. aureus NARSA VRS4; assay: microbe, parasite or virus in culture; assay type: cell-based, Staphylococcus aureus; conditions: Staphylococcus aureus, VRSA, read-out: MIC VRSA

Q: What does the source list for `CCCCCCCCCCCCCC(=O)N[C@@H](CCCCN)C(=O)N[C@@H](CCCCN)C(=O)N[C@@H](CCCCN)C(=O)N[C@@H](CCCCNC(=O)[C@H]1NC(=O)[C@H]2NC(=O)[C@H](NC(=O)[C@@H]3NC(=O)[C@H](CC(N)=O)NC(=O)[C@H](NC(=O)[C@@H](CC(C)C)NC)[C@H](O)c4ccc(c(Cl)c4)Oc4cc3cc(c4O[C@@H]3O[C@H](CO)[C@@H](O)[C@H](O)[C@H]3O[C@H]3C[C@](C)(N)[C@H](O)[C@H](C)O3)Oc3ccc(cc3Cl)[C@H]2O)c2ccc(O)c(c2)-c2c(O)cc(O)cc21)C(=O)O` [Compound 17, nC13CO-KKK-K(Vancomycin)-OH]?
A: MIC VISA [1]: 0.03 µg/mL (≈ 0.0138 µM); MIC MDR S.P. [2]: <0.003 µg/mL; MIC VRE [3]: 0.125 µg/mL (≈ 0.0575 µM); Membrane permeabilisation (propidium iodide fluorescence) [4]: comparable fluorescence intensity to oritavancin; MIC S. aureus ATCC 43300 MRSA, NBS ([5]; ATCC 43300): ≤ 0.016 µg/mL; MIC S. aureus ATCC 43300 MRSA, PP ([5]; ATCC 43300): 1 µg/mL (≈ 0.46 µM); MIC S. aureus ATCC 43300 MRSA, PS+P-80 ([5]; ATCC 43300): ≤ 0.016 µg/mL; MIC MRSA ([5]; ATCC 43300, 24 h): <0.003 µg/mL; MIC S. aureus ATCC 43300 MRSA, PS ([5]; polystyrene plate, no polysorbate-80): 1 µg/mL and 1 to 2 µg/mL; CC50 at 24 h [6]: 15 µM; MIC S. aureus ATCC29213 MSSA, PP ([7]; ATCC 29213): 1 to 2 µg/mL; MIC S. aureus ATCC29213 MSSA, PS ([7]; ATCC 29213): 1 µg/mL (≈ 0.46 µM); MIC S. aureus ATCC29213 MSSA, NBS ([7]; non-binding surface plate): ≤ 0.016 µg/mL; MIC S. aureus ATCC29213 MSSA, PS+P-80 ([7]; polystyrene plate with 0.002% polysorbate-80): ≤ 0.016 µg/mL

Q: What does the source list for `CN[C@H](CC(C)C)C(=O)N[C@H]1C(=O)N[C@@H](CC(N)=O)C(=O)N[C@H]2C(=O)N[C@H]3C(=O)N[C@H](C(=O)N[C@H](C(=O)O)c4cc(O)cc(O)c4-c4cc3ccc4O)[C@H](O[C@H]3C[C@](C)(N)[C@@H](O)[C@H](C)O3)c3ccc(c(Cl)c3)Oc3cc2cc(c3O[C@@H]2O[C@H](CO)[C@@H](O)[C@H](O)[C@H]2O[C@H]2C[C@](C)(NCc3ccc(-c4ccc(Cl)cc4)cc3)[C@@H](O)[C@H](C)O2)Oc2ccc(cc2Cl)[C@H]1O` [Compound 5, Oritavancin, reference compound]?
A: MIC ([1]; Staphylococcus aureus, NRS1 / VISA, read-out: MIC VISA): 1 µg/mL (≈ 0.558 µM); MIC ([2]; Streptococcus pneumoniae, ATCC700677, read-out: MIC MDR S.P.): 0.06 µg/mL (≈ 0.0335 µM); MIC ([3]; Enterococcus faecium, ATCC51559 / VRE, read-out: MIC VRE): 0.125 µg/mL (≈ 0.0697 µM); MIC ([5]; 24 h, read-out: MIC MRSA, S. aureus ATCC 43300, NBS plates, MHB, 24 h, substance alone): 0.06 µg/mL (≈ 0.0335 µM); MIC ([5]; read-out: MIC S. aureus ATCC 43300 MRSA, NBS, non-binding surface plate): ≤ 0.016 µg/mL; MIC ([5]; read-out: MIC S. aureus ATCC 43300 MRSA, PP, polypropylene plate): 1 µg/mL (≈ 0.558 µM); MIC ([5]; read-out: MIC S. aureus ATCC 43300 MRSA, PS+P-80, polystyrene plate with 0.002% polysorbate-80): ≤ 0.016 µg/mL; MIC ([5]; read-out: MIC S. aureus ATCC 43300 MRSA, PS, polystyrene plate, no polysorbate-80): 1 µg/mL (≈ 0.558 µM); CC50 at 24 h ([6]; 24 h, MTT, 1% FBS, read-out: Cytotoxicity CC50 HepG2): 25 µM; MIC [8]: 0.125 µg/mL (≈ 0.0697 µM); MIC ([7]; read-out: MIC MSSA): ≤ 0.016 µg/mL; MIC ([7]; read-out: MIC S. aureus ATCC29213 MSSA, NBS): ≤ 0.016 µg/mL; MIC ([7]; read-out: MIC S. aureus ATCC29213 MSSA, PP): 1 µg/mL (≈ 0.558 µM); MIC ([7]; read-out: MIC S. aureus ATCC29213 MSSA, PS): 1 µg/mL (≈ 0.558 µM); MIC ([7]; read-out: MIC S. aureus ATCC29213 MSSA, PS+P-80): 0.031 µg/mL (≈ 0.0173 µM)

Q: Which “MIC VISA” value [1] does the source give for `CCCCCCCCCCC(=O)N[C@@H](CCCCN)C(=O)N[C@@H](CCCCN)C(=O)N[C@@H](CCCCNC(=O)[C@H]1NC(=O)[C@H]2NC(=O)[C@H](NC(=O)[C@@H]3NC(=O)[C@H](CC(N)=O)NC(=O)[C@H](NC(=O)[C@@H](CC(C)C)NC)[C@H](O)c4ccc(c(Cl)c4)Oc4cc3cc(c4O[C@@H]3O[C@H](CO)[C@@H](O)[C@H](O)[C@H]3O[C@H]3C[C@](C)(N)[C@H](O)[C@H](C)O3)Oc3ccc(cc3Cl)[C@H]2O)c2ccc(O)c(c2)-c2c(O)cc(O)cc21)C(N)=O` [Compound 21, nC10CO-KK-K(Vancomycin)-NH2] here?
A: 0.06 µg/mL (≈ 0.03 µM)

Q: What about the “MIC MDR S.P.” value [2] of the same molecule?
A: 0.015 µg/mL (≈ 0.0075 µM)

Q: What about the “MIC VRE” value [3] of the same molecule?
A: 2 µg/mL (≈ 0.999 µM)

Q: And the “MIC MRSA” value ([5]; S. aureus ATCC 43300, NBS plates, MHB, 24 h, substance alone)?
A: 0.007 µg/mL (≈ 0.0035 µM)

Q: What about the CC50 at 24 h [6] of the same molecule?
A: 131 µM

From PMC5750218, “Protein-inspired antibiotics active against vancomycin- and daptomycin-resistant bacteria” (Nature Communications, 2018)
